Columns and labels:
TNF-α = TNF-α production in LPS-stimulated THP-1 macrophages (ELISA); type: cell-based; settings: Homo sapiens, 1 h pretreatment, then LPS 1 μg/mL 24 h; for inhibition at 4 µg/mL: 4 μg/mL; for inhibition at 8 µg/mL: 8 μg/mL
Protocol: (§1) To determine the effects of the AMTs 1–8 on the production of TNF-α, IL-6, and IL-1β, THP-1 macrophaghes were pretreated with the compounds and then stimulated with LPS, as the triggering factor to stimulate the cytokines production. The levels of pro-inflammatory cytokines in the cell supernatants were determined using the enzyme-linked immunosorbent (ELISA) kits.
(§2) Figure 2 Meroterpenoids 1–8 inhibit LPS-induced expression of TNF-α, IL-6, and IL-1β in THP-1 macrophages (A, B, and C) respectively. Cells were pretreated for 1 h with the compounds (1, 2, 3, 4, 7, and 8 at 8 μg/mL; 5 and 6 at 4 μg/mL), followed by 24 h treatment with LPS. TNF-α (A), IL-6 (B) and IL-1β (C) contents in the culture medium were determined by ELISA. Dexametasone (DEX) was used as positive control. Data are expressed as means ± SE from three independent experiments. Statistical significance is indicated (+++p < 0.001 and +++< 0.01 vs. Control; respectively * p < 0.05, ** p < 0.01, *** p < 0.001 vs. Control + LPS).
(§3) THP-1 cells were plated at a density of 3 × 10^5 cells/mL in 24-well plates and incubated with PMA (0.2 μM) for 72 h in a humidified atmosphere of 5% CO2 at 37 °C. The macrophages were pre-treated for 1 h with AMTs 1–8 (8 μg/mL for compounds 1, 2, 3, 4, 7, and 8, and 4 μg/mL for 5 and 6) and then stimulated with lipopolysaccharide (LPS, 1 μg/mL) for another 24 h. Dexamethasone (Dex) was used as positive reference compound at 1 μM. The viability of cells was greater than 95% throughout the experiment. The levels of TNF-α, IL-6, and IL-1ß in supernatants were measured with enzyme-linked immune-sorbent assay (ELISA) kits (Diaclone GEN-PROBE, Besançon cedex, France) according to the manufacturer’s protocols. The absorbance was determined at 450 nm using a microplate reader. To calculate the concentration of cytokines, a standard curve was constructed using serial dilutions of cytokine standards provided with the kit.

THP-1 macrophages = assay: Cell viability of THP-1 macrophages (SRB assay); type: cell-based, human; settings: LPS-stimulated THP-1 macrophages, 0–100 µg/mL, 48 and 72 h, data not shown
Protocol: The cytotoxic effect of AMTs 1–8 on LPS-stimulated THP-1 macrophages was determined at different concentrations and incubation times (0–100 µg/mL, 48 and 72 h) using the SRB assay. […] Therefore, in order to rule out cytotoxic effects, compounds 1, 2, 3, 4, 7, and 8 were tested on THP-1 cells at maximum concentration of 8 µg/mL while 5 and 6 were tested at maximum concentration of 4 µg/mL. The viability of THP-1 cells was measured by the SRB assay. The cells were seeded in 96-well plates with the growth medium at a density of 1 × 10^4 cells per well, and differentiation into macrophages was induced by 0.2 μM of phorbol myristate acetate (PMA). Three days after differentiation into macrophages, the cells were treated with various concentrations (0, 3.125, 6.25, 12.5, 25, 50, 100 µg/mL) of the AMTs 1–8 in fresh medium and incubated for another 72 h. Then, the cells were fixed with 50 μL of TCA (50%) and processed, as described in the literature.

IL-1β = IL-1β production in LPS-stimulated THP-1 macrophages (ELISA); type: cell-based; settings: Homo sapiens, 1 h pretreatment, then LPS 1 μg/mL 24 h; for inhibition at 4 µg/mL: 4 μg/mL; for inhibition at 8 µg/mL: 8 μg/mL
Protocol: as §1, §2, §3

IL-6 = IL-6 production in LPS-stimulated THP-1 macrophages (ELISA); type: cell-based; settings: Homo sapiens, 1 h pretreatment, then LPS 1 μg/mL 24 h; for inhibition at 4 µg/mL: 4 μg/mL; for inhibition at 8 µg/mL: 8 μg/mL
Protocol: as §1, §2, §3

A549 cells = assay: Cell cycle analysis of A549 cells by flow cytometry; type: cell-based, human; settings: IC50 concentration, 24 h; for cells at S phase: control 4.99%; for cells at G2/M phase: control 14.06%
Protocol: We next investigated whether the treatment with AMTs 1–8 caused any cell cycle-related event, which inhibit the viability of A549 cell line. Thus, the cells were treated for 24 h with the AMTs at concentrations of IC50 (Table 1), or with colchicine (at 0.2 μg/mL) as the positive control, and then subjected to flow cytometry analysis to evaluate the distribution of cells in the different phases of the cell cycle (Figure 5A).
Figure 5 Effects of meroterpenoids 1–8 on cell cycle distribution of A549 cells. Cells were incubated with IC50 doses of the compounds for 24 h. (A) Cells were harvested to measure the cell cycle distribution by flow cytometry. (B) Quantitative analysis of cell cycle distribution after treatment. Data represent mean ±SE from three independent experiments. * p < 0.05, ** p < 0.01, and *** p < 0.001 compared with the untreated group (control).
For cell cycle analysis by flow cytometry, A549 cells were seeded at 1 × 10^6 cells/well in 6-well plates and incubated for 24 h followed by treatment with the AMTs, at concentration of IC50, and further incubation for 24 h. Colchicine (final concentration of 0.2 μg/mL) was used as positive control. Cells were harvested after trypsinization and washed once with PBS. Then, the cells were centrifuged at 1500 rpm for 5 min (25 °C), the pellet was fixed with 1 mL of ice-cold 70% ethanol, and the samples were stored at −4 °C overnight. Then the cells were washed with PBS and incubated in the darkness with PBS containing 5 mg/mL of RNase A for 48 h at 4 °C. Subsequently, 50 µL of propidium iodide (0.1 mg/mL) was added and the cells were incubated for 1 h at 4 °C. The relative DNA content per cell was analyzed using a Beckman Coulter Cytomics FC 500 MPL (Beckman Coulter Inc, San Diego, CA, USA). The data acquisition was performed with the DML program. The analysis of the acquired data was performed with the CXP cytometer.

SMILES	inhibition at 4 µg/mL (TNF-α) [%]	concentration up to which cell viability is not affected (THP-1 macrophages)	inhibition at 4 µg/mL (IL-1β) [%]	inhibition at 4 µg/mL (IL-6) [%]	inhibition at 8 µg/mL (TNF-α) [%]	inhibition at 8 µg/mL (IL-1β) [%]	cells at S phase (A549 cells) [%]	cells at G2/M phase (A549 cells) [%]	inhibition at 8 µg/mL (IL-6) [%]	cells at G0/G1 phase (A549 cells; control 71.40%) [%]
COc1c(C)cc(O)cc1C/C=C(\C)CC(=O)/C=C(\C)CCCC(C)C(=O)/C=C/C(C)(C)O (stereo not shown) [Compound 6, amentadione-1′-methyl ether]	42.2 to 43.3	up to 6 µg/mL	61.1	50.9						
COc1c(C)cc(O)cc1C/C=C(\C)CC(=O)/C=C(/C)CCCC(C)C(=O)/C=C/C(C)(C)O (stereo not drawn) [Compound 5, 6-cis-amentadione-1′-methyl ether]	55.3	up to 6 µg/mL	86	67.8						
COc1c(C)cc(O)cc1C/C=C(\C)CC(=O)/C=C(/C)CCCC(C)(O)C(=O)/C=C/C(C)(C)O (stereo not shown) [Compound 1, usneoidone Z]		up to 10 µg/mL			73.1	74.6	17.75	31.15	71.2	
COc1c(C)cc(O)cc1C/C=C(\C)CC(=O)/C=C(\C)CCCC(C)(O)C(=O)/C=C/C(C)(C)O (stereo not shown) [Compound 2, 11-hydroxy-1’-O-methylamentadione]		up to 10 µg/mL			64.1	84.4	17.90	31.62	80.8	
COc1c(C)cc(O)cc1C/C=C(\C)CC(=O)/C=C(/C)CCCC(C)=O [Compound 4, cystomexicone A]		up to 10 µg/mL			42.2 to 43.3				43	
COc1c(C)cc(O)cc1/C=C/C(C)(O)CC(=O)/C=C(/C)CCCC(C)C(=O)/C=C/C(C)(C)O (stereo not shown) [Compound 7, cystodione A]		up to 10 µg/mL			42.2 to 43.3	44.9	13.69	40.19	49.6	49.31
COc1c(C)cc(O)cc1C/C=C(\C)CC(=O)/C=C(\C)CCCC(C)=O [Compound 3, cystomexicone B]		up to 10 µg/mL			57.1	35.3			69.2	
COc1c(C)cc(O)cc1/C=C/C(C)(O)CC(=O)/C=C(\C)CCCC(C)C(=O)/C=C/C(C)(C)O (stereo not shown) [Compound 8, cystodione B]		up to 10 µg/mL			52.6	44.6	16.73	32.50	58.9	

Reference: publication PMC7230911, “Meroterpenoids from the Brown Alga Cystoseira usneoides as Potential Anti-Inflammatory and Lung Anticancer Agents” (Marine Drugs, 2020)
